Source: patent publication US4882234A, “Storage-stable porphin compositions and a method for their manufacture” (Healux, Inc., priority 1986, dated 1989)

Tested on: albino mouse ear vasculature
Assay: Phototoxicity to normal skin vasculature, Evans blue assay in albino mouse ear
Parameters: species or system Swiss-Webster mice
Conditions: in vivo; for M.E.D. (minimum effective dose to damage ear vasculature): 1440 min
Text: The major side effect of hematoporphyrin derivative preparations in tumor phototherapy is the extended phototoxicity to normal skin (by way of the exposed skin vasculature) for a month or longer after injection of therapeutic doses.
The Evans blue assay method assumes that the primary site of photodamage is the vascular system and uses Evans blue (colloidal dye) extravasation through damaged vascular wall into surrounding tissues to measure the relative phototoxicity as the minimum effective dose (M.E.D.) of photosensitizer necessary to cause a statistically significant increase in tissue Evans blue content. The higher the dose of photosensitizer required the lower the phototoxicity. […] This is possibly due in site aggregation and inhibition of the photosensitized reaction.

| Substance | Evans Blue Increase [%] | M.E.D. (minimum effective dose to damage ear vasculature) [mg/kg] | Relative phototoxicity at higher doses |
| --- | --- | --- | --- |
| tetraphenyl porphyrin sulfonate [TPPS] | 84 | 2.5 |  |
| Photofrin |  |  | relative phototoxicity is decreased at higher doses |
| zinc phthalocyanine sulfonate [ZPS] | 30 | 22 |  |
